Data as given in patent EP0345629A2, “Condensed diazepinones, process for their preparation and medicaments containing them” (Dr. Karl Thomae GmbH, priority 1988, dated 1989).
Where two headings read alike, the source gives them in different places.

Assays:
[1] = system: Acetylcholinwirkung auf Bronchien; assay: Inhibition of the acetylcholine effect on bronchi (expiratory resistance, Konzett-Rößler) in the anaesthetised guinea pig; format: in vivo, Meerschweinchen; conditions: for ED50: Cavia porcellus, 5 min, anaesthetised guinea pig, 10 µg/kg Acetylcholin 5 min after test substance, expiratory resistance, read-out: -log ED50 Bronchien (converted)
Method: (§1) 3. Hemmung der Acetylcholinwirkung auf Blase, Bronchien und Herzfrequenz des Meerschweinchens
(§2) Am narkotisierten Meerschweinchen wurden 5 Minuten nach Gabe der Prüfsubstanz 10 µg/kg Acetylcholin sowohl intravenös als auch gleichzeitig intraarteriell injiziert. Dabei wurde die Herzfrequenz durch extrakorporale Ableitung des EKG, der Ausatemwiderstand nach Konzett-Rößler und die Kontraktion der freigelegten Harnblase direkt registriert. Für die Hemmung der Acetylcholinwirkung an den untersuchten Organen wurden Dosis-Wirkungskurven aufgenommen und daraus -log EDso-Werte bestimmt. Ergebnisse siehe Tabelle III.

Speichelsekretion = assay: Inhibition of pilocarpine-induced salivary secretion in the rat; format: in vivo, männliche THOM-Ratten; conditions: iv; urethane-anaesthetised rat, i.v.; 2 mg/kg Pilocarpin s.c.; dose reducing saliva volume by 50 %; read-out: -log ED50 Salivationshemmung (converted)
Method: 2. Speichelsekretionshemmende Wirkung an der Ratte
Nach Lavy und Mulder (Arch. int. Pharmacodyn. 178, 437-445, (1969)) erhielten mit 1,2 g/kg Urethan narkotisierte männliche THOM-Ratten steigende Dosen der Substanz i.v.. Die Speichelsekretion wurde durch s.c. Gabe von 2 mg/kg Pilocarpin ausgelöst. Der Speichel wurde mit Fließpapier aufgesaugt, die von ihm eingenommene Fläche alle 5 Minuten planimetrisch bestimmt. Die Dosis der Substanz, die das Speichelvolumen um 50% verminderte, wurde graphisch ermittelt. Ergebnisse siehe Tabelle 11.

[2] = system: Acetylcholinwirkung auf Blase; assay: Inhibition of the acetylcholine effect on bladder contraction in the anaesthetised guinea pig; format: in vivo, Meerschweinchen; conditions: for ED50: Cavia porcellus, 5 min, anaesthetised guinea pig, 10 µg/kg Acetylcholin 5 min after test substance, bladder contraction, read-out: -log ED50 Blase (converted)
Method: as §1, §2

[3] = system: durch McN-A-343 verursachte Blutdruckanstieg (M,); assay: M1/M2 selectivity in the rat: inhibition of blood pressure rise caused by McN-A-343; format: in vivo, männliche THOM-Ratten; conditions: for ED50: iv, 5 min, rat, i.v., 5 min after injection, dose reducing the blood pressure rise after 0,3 mg/kg McN-A-343 i.v. (M1) by 50 %, read-out: -log ED50 Blutdruck (converted)
From the text: (§3) 1. M1-/M2-Selektivität an der Ratte
(§4) Die Dosis der Substanzen, die entweder die vagale Bradykardie (M2) oder den Blutdruckanstieg (M,) um 50% verminderte, wurde graphisch ermittelt. Ergebnisse siehe Tabelle 11.

[4] = system: Acetylcholinwirkung auf Herzfrequenz; assay: Inhibition of the acetylcholine effect on heart rate in the anaesthetised guinea pig; format: in vivo, Meerschweinchen; conditions: for ED50: Cavia porcellus, 5 min, anaesthetised guinea pig, 10 µg/kg Acetylcholin 5 min after test substance, heart rate (ECG)
Method: as §1, §2

vagale Bradykardie (M2) = assay: M1/M2 selectivity in the rat: inhibition of bradycardia evoked by electrical vagus stimulation; format: in vivo, männliche THOM-Ratten; conditions: iv; for ED50: 5 min
From the text: as §3, §4

[5] = Solubility in water (remark in the synthesis example); format: physicochemical
[6] = rat, i.v., 5 min after injection, dose reducing vagal bradycardia (M2) by 50 %, read-out: -log ED50 Herz (converted)

With `O=C1Nc2cccnc2N(C(=O)CCCN2CCCCC2CN2CCCC2)c2ccccc21` (stereo not drawn) [C, 5, 11-Dihydro-11-[4-[2-[(1-pyrrolidinyl)methyl]-1-piperidinyl]-1-oxobutyl]-6H-pyrido[2,3-b][1,4]-benzodiazepin-6-on] as the compound, how does the ED50 [1] read?
The ED50 was 0.0513 µmol/kg.

And the ED50 (Speichelsekretion)?
The ED50 was 1.66 µmol/kg.

And the ED50 [2]?
Its ED50 is 0.316 µmol/kg.

And the ED50 [3]?
Its ED50 is 0.219 µmol/kg.

What about the ED50 [4] of the same compound?
The ED50 was 0.0275 µmol/kg.

And the ED50 (vagale Bradykardie (M2); [6])?
Its ED50 is 0.0468 µmol/kg.

For `CCN(CC)CC1CCCCN1CC(=O)N1c2ccccc2C(=O)Nc2cccnc21` (stereo not drawn) [D, 11-[[2-[(Diethylamino)methyl]-1-piperidinyl]acetyl]-5,11-dihydro-6H-pyrido[2,3-b][1,4]-benzodiazepin-6-on, reference compound], which ED50 (Speichelsekretion) is on record?
Its ED50 is 10 µmol/kg.

And the ED50 [3]?
Its ED50 is 2.34 µmol/kg.

And the ED50 (vagale Bradykardie (M2); Rattus norvegicus, read-out: -log ED50 Herz)?
Its ED50 is 0.38 µmol/kg.

What does the source list for `CCN(CC)CC1COCCN1CCCC(=O)N1c2ccccc2C(=O)Nc2cccnc21` (stereo not drawn) [A, 11-[4-[3-[(Diethylamino)methyl]-4-morpholinyl]-1-oxobutyl]-5,11-dihydro-6H-pyrido[2,3-b][1,4]-benzodiazepin-6-on]?
ED50 [1]: 0.0708 µmol/kg; Löslichkeit in Wasser [5]: leicht löslich in Wasser; ED50 (Speichelsekretion): 1.1 µmol/kg; ED50 [2]: 1 µmol/kg; ED50 [3]: 0.55 µmol/kg; ED50 [4]: 0.0282 µmol/kg; ED50 (vagale Bradykardie (M2); [6]): 0.0513 µmol/kg

Which “Löslichkeit in Wasser” value [5] does the source give for `CCN(CC)CC1CCCCN1CCCC(=O)N1c2ccc(Br)cc2C(=O)Nc2cccnc21` (stereo not drawn) [Beispiel 7, 8-Brom-11-[4-[2-[(diethylamirio)methyl]-1-piperidinyl]-1-oxobutyl]-5,11-dihydro-6H-pyrido[2,3-b][1,4]-benzodiazepin-6-on] here?
Its value is “in Wasser schwer lösliches”.

Which “Löslichkeit in Wasser” value [5] does the source give for `CN(C)CCC1CCCCN1CCCC(=O)N1c2ccccc2C(=O)Nc2cccnc21` (stereo not drawn) [Beispiel 4, 5,11-Dihydro-11-[4-[2-[2-(dimethylamino)ethyl]-1-piperidinyl]-1-oxobutyl]-6H-pyrido[2,3-b][1,4]benzodiazepin-6-on] here?
Its value is “löslich in Wasser”.

For `CN1CCN(CC(=O)N2c3ccccc3C(=O)Nc3cccnc32)CC1` [E, 5,11-Dihydro-11-[(4-methyl-1-piperazinyl)acetyl]-6H-pyrido[2,3-b][1,4]benzodiazepin-6-on, reference compound], which ED50 (Speichelsekretion) is on record?
The ED50 was 0.603 µmol/kg.

Which “-log ED50 Bronchien” value ([1]; in vivo) does the source give for `CN1C2CCC1CC(OC(=O)C(CO)c1ccccc1)C2` (racemic) [F, Atropin, reference compound] here?
The value was 7,96 Molkg^-1.

And the “-log ED50 Blase” value ([2]; in vivo)?
Its value is 7,03 Molkg^-1.

What about the “-log ED50 Blutdruck” value ([3]; in vivo) of the same compound?
The value was 7,34 Mkg^-1.

What about the “-log ED50 Herz” value ([4]; in vivo) of the same compound?
Its value is 7,70 Molkg^-1.

What about the “-log ED50 Herz” value (vagale Bradykardie (M2); in vivo) of the same compound?
The value was 7,94 Mkg^-1.

Which results are given for `CCN(CC)CC1CCCCN1CCCC(=O)N1c2cc(C)ccc2C(=O)Nc2cccnc21` (stereo not drawn) [B, 11-[4-[2-[(Diethylamino)methyl]-1-piperidinyl]-1-oxobutyl]-5,11-dihydro-9-methyl-6H-pyrido[2,3-b][1,4]benzodiazepin-6-on]?
ED50 [1]: 0.151 µmol/kg; ED50 (Speichelsekretion): 1.12 µmol/kg; ED50 [2]: 0.759 µmol/kg; ED50 [3]: 0.501 µmol/kg; ED50 [4]: 0.0708 µmol/kg; ED50 (vagale Bradykardie (M2); [6]): 0.0617 µmol/kg
